Measured values taken from publication PMC9246256, “Structure-based optimization of type III indoleamine 2,3-dioxygenase 1 (IDO1) inhibitors” (Journal of Enzyme Inhibition and Medicinal Chemistry, 2022).
Read-outs that look alike come from different tables or passages of the source.

Molecular target: T1, purified recombinant IDO1 (Homo sapiens, UniProt P14902)
T1 construct: Full-length human IDO1 gene was cloned into the pET-28a vector; inferred from pET-28a vector and HisTrap purification; made in house; host or cells: E. coli Rosetta (DE3)
Experiment: Enzymatic IDO1 inhibition assay (ascorbate/methylene blue reduction system, HPLC detection of kynurenine)
Format: biochemical
Conditions: for IC50: enzymatic, L-Trp 100 µM, 0.01% Triton X-100, 5% DMSO, 20 min at room temperature, pH 6.5, duplicates; for LE [kcal/mol/HA]: ligand efficiency, LE = -RT log(IC50)/number of heavy atoms, from enzymatic IC50
Method: Enzymatic IC50 values were measured with the ascorbate/methylene blue reduction system[85] in presence of a non-ionic detergent to reduce compound aggregation as described before[28]. Kynurenine and L-Trp concentrations were determined by HPLC through UV detection.
Full-length human IDO1 gene was cloned into the pET-28a vector and expressed in E. coli Rosetta (DE3) cells. […] The culture was harvested and frozen at −80 °C until further use. The frozen cells were lysed by sonication in 20 mM Tris pH 7, 400 mM NaCl, 1 mM MgCl2, 20 mM imidazole, 1 mM DTT, 0.5 mg/mL Lysozyme and Protease inhibitor. After centrifugation, the supernatant was loaded into a HisTrap HP column pre-equilibrated with buffer containing 20 mM Tris pH 7, 500 mM NaCl and 20 mM imidazole, and eluted with the same buffer containing 500 mM imidazole. Fractions containing IDO1 were pooled, concentrated, and injected on a size exclusion chromatography column (HiLoad Superdex S75 16/60) to increase purity. hIDO1 fractions were concentrated to 20 mg/mL in 20 mM Tris pH 7 and 150 mM NaCl.
The enzymatic inhibition assays were performed as described by Takikawa et al.[130] with some modifications. Briefly, the reaction mixture (100 µL) contained potassium phosphate buffer (100 mM, pH 6.5) ascorbic acid (20 mM), catalase (400 units/mL), methylene blue (10 µM), purified recombinant IDO1 (2.5 ng/µL), L-Trp (100 µM), Triton X-100 (0.01%) and DMSO (5 µL). The inhibitors were serially diluted 3-fold for at least 8 different concentrations. After incubation at room temperature for 20 min, the reaction was stopped in its linear phase by addition of trichloroacetic acid solution (40 mL, 30% w/v), and the samples were incubated at 50 °C for 30 min. After centrifugation, 80 µl of supernatant from each well were used for HPLC analysis. The mobile phase for HPLC analysis was composed of 50% (v/v) of methanol and 50% of sodium citrate buffer (40 mM, pH 2.4) containing 400 µM sodium dodecyl sulphate. […] All assays were carried out in duplicates. The activity (Act) of each compound was calculated as Act = RT log(IC50) in analogy to the relation between the binding free energy and the Ki value. The ligand efficiency (LE) was calculated as LE = −Act/NHA, where NHA is the number of non-hydrogen atoms (heavy atoms) in the compound.

T1 sequence (P14902 whole entry): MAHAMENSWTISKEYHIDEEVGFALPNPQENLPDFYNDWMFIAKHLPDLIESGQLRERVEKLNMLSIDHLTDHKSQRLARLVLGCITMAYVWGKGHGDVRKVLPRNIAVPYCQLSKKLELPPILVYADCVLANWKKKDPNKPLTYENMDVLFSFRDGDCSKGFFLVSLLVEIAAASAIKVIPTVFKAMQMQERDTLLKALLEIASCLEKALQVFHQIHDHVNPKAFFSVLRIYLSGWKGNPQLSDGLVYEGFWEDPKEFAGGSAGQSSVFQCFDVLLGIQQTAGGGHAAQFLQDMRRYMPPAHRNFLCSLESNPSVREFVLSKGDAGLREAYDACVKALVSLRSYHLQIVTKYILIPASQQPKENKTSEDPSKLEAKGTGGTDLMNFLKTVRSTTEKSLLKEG

In the case of `c1ccc(Sc2c[nH]nn2)cc1` [Compound 83, 4-(Phenylthio)-1,2,3-triazole], the IC50 (read-out: IC50 [ μ M] (SD)) is reported as 590 µM and the “LE [kcal/mol/HA]” value is reported as 0.37 kcal/mol/HA.
`Brc1ccc(Nc2nnc[nH]2)cc1` [Compound 166, N-(4-Bromophenyl)-4H-1,2,4-triazol-3-amine] gave an IC50 (read-out: IC50 [ μ M] (SD)) greater than 1000 µM.
Work on `c1ccc(-c2nnc[nH]2)nc1` [Compound 159, 2-(1H-1,2,4-Triazol-3-yl)pyridine] yielded an IC50 (IC50 [ μ M] (SD)) greater than 1000 µM.
In the case of `Cc1cccc(-c2cnn[nH]2)c1` [Compound 21], the “LE [kcal/mol/HA]” value is reported as 0.53 kcal/mol/HA.
In the case of `Oc1ccc(-c2c[nH]nn2)cc1` [Compound 20, 4–(1,2,3-Triazol-4-yl)phenol], the IC50 (read-out: IC50 [ μ M] (SD)) is reported as greater than 1000 µM.
With `CCc1cccc(-c2cnn[nH]2)c1` [Compound 22] the “LE [kcal/mol/HA]” value was 0.51 kcal/mol/HA.
`Cc1[nH]nnc1-c1cccc(Cl)c1` [Compound 63, 4–(3-Chlorophenyl)-5-methyl-1,2,3-triazole] gave an IC50 (read-out: IC50 [ μ M] (SD)) greater than 1000 µM.
With `Clc1ccc(Cl)c(-c2cnn[nH]2)c1` [Compound 46] the “LE [kcal/mol/HA]” value was 0.54 kcal/mol/HA.
In the case of `O=C(c1ccc(O)cc1)c1cnn[nH]1` [Compound 108, (4-Hydroxyphenyl)(1H-1,2,3-triazol-5-yl)methanone], the IC50 (read-out: IC50 [ μ M] (SD)) is reported as greater than 1000 µM.
In the case of `Fc1cccc(-c2nc[nH]n2)c1` [Compound 137, 3–(3-Fluorophenyl)-1H-1,2,4-triazole], the IC50 (read-out: IC50 [ μ M] (SD)) is reported as 160 µM and the “LE [kcal/mol/HA]” value is reported as 0.43 kcal/mol/HA.
`O=C(c1cccc(O)c1)c1cnn[nH]1` [Compound 107, (3-Hydroxyphenyl)(1H-1,2,3-triazol-5-yl)methanone] showed an IC50 (read-out: IC50 [ μ M] (SD)) greater than 1000 µM.
`OC(c1ccccc1)c1c[nH]nn1` (stereo not drawn) [Compound 85, Phenyl(1,2,3-triazol-4-yl)methanol] showed an IC50 (read-out: IC50 [ μ M] (SD)) greater than 1000 µM.
`O=C(c1cnn[nH]1)c1ccccc1Cl` [Compound 100, (2-Chlorophenyl)(1H-1,2,3-triazol-5-yl)methanone] gave an IC50 (read-out: IC50 [ μ M] (SD)) greater than 1000 µM.
`NCc1nn[nH]c1C(=O)c1ccc(Br)cc1` [Compound 126, (4-(Aminomethyl)-1H-1,2,3-triazol-5-yl)(4-bromophenyl)methanone] gave an IC50 (read-out: IC50 [ μ M] (SD)) greater than 1000 µM.
`O=C(c1ccccc1)c1cnn[nH]1` [Compound 99, Phenyl(1H-1,2,3-triazol-5-yl)methanone] was tested, and the IC50 (read-out: IC50 [ μ M] (SD)) was 430 µM and the “LE [kcal/mol/HA]” value was 0.35 kcal/mol/HA.
With `Nc1ccc(Br)cc1-c1nnc[nH]1` [Compound 12] the “LE [kcal/mol/HA]” value was 0.80 kcal/mol/HA.
`Clc1cc(Cl)cc(-c2c[nH]nn2)c1` [Compound 50, 4–(3,5-Dichlorophenyl)-1,2,3-triazole] was tested, and the IC50 (read-out: IC50 [ μ M] (SD)) was 58 µM and the “LE [kcal/mol/HA]” value was 0.44 kcal/mol/HA.
`c1ccc2c(c1)ccc1nn[nH]c12` [Compound 88] was tested, and the IC50 (read-out: IC50 [ μ M] (SD)) was greater than 100 µM.
Molecule `c1ccc(Nc2[nH]nnc2-c2ccccc2)cc1` [Compound 80] has an IC50 (read-out: IC50 [ μ M] (SD)) greater than 250 µM.
With `CC(C)c1cccc(-c2c[nH]nn2)c1` [Compound 23, 4–(3-Isopropylphenyl)-1,2,3-triazole] the IC50 (read-out: IC50 [ μ M] (SD)) was 280 µM and the “LE [kcal/mol/HA]” value was 0.35 kcal/mol/HA.
`c1ccc(COc2ccccc2-c2c[nH]nn2)cc1` [Compound 25, 4–(2-Benzyloxyphenyl)-1,2,3-triazole] gave an IC50 (read-out: IC50 [ μ M] (SD)) greater than 500 µM.
For `Oc1ccccc1-n1cncn1` [Compound 171], the IC50 (read-out: IC50 [ μ M] (SD)) was 32 µM and the “LE [kcal/mol/HA]” value was 0.52 kcal/mol/HA.
`c1ccc(Oc2cnn[nH]2)cc1` [Compound 82, 4-(Phenoxy)-1,2,3-triazole] gave an IC50 (read-out: IC50 [ μ M] (SD)) greater than 1000 µM.
`NC(=O)c1[nH]nnc1-c1cc(Cl)ccc1O` [Compound 67] gave an IC50 (read-out: IC50 [ μ M] (SD)) greater than 1000 µM.
For `Nc1ccsc1-c1nc[nH]n1` [Compound 161, 2-(1H-1,2,4-Triazol-3-yl)thiophen-3-amine], the IC50 (read-out: IC50 [ μ M] (SD)) was 10 µM and the “LE [kcal/mol/HA]” value was 0.57 kcal/mol/HA.
`c1ccc(-n2cncn2)cc1` [Compound 170, 1-phenyl-1,2,4-triazole] was tested, and the IC50 (read-out: IC50 [ μ M] (SD)) was 870 µM and the “LE [kcal/mol/HA]” value was 0.38 kcal/mol/HA.
For `Nc1cccnc1-c1nc[nH]n1` [Compound 160, 2-(1H-1,2,4-Triazol-3-yl)pyridine-3-amine], the IC50 (read-out: IC50 [ μ M] (SD)) was 16 µM and the “LE [kcal/mol/HA]” value was 0.55 kcal/mol/HA.
In the case of `CON=C(c1ccccc1)c1c[nH]nn1` [Compound 87, Phenyl(1H-1,2,3-triazol-4-yl)methanone O-methyl oxime], the IC50 (read-out: IC50 [ μ M] (SD)) is reported as greater than 1000 µM.
With `Oc1ccc(CCc2ccccc2)cc1-c1cnn[nH]1` [Compound 39, 4-Phenylethyl-2-(1H-1,2,3-triazol-5-yl)phenol] the IC50 (read-out: IC50 [ μ M] (SD)) was 160 µM and the “LE [kcal/mol/HA]” value was 0.26 kcal/mol/HA.
`NC(=O)CSc1nnc2sc3ccccc3n12` [Compound 168, 2-((1,9a-Dihydrobenzo[4,5]thiazolo[2,3-c][1,2,4]triazol-3-yl)thio)acetamide] showed an IC50 (read-out: IC50 [ μ M] (SD)) greater than 1000 µM.
In the case of `c1cc(-c2nc[nH]n2)ccn1` [Compound 158, 4-(1H-1,2,4-Triazol-3-yl)pyridine], the IC50 (read-out: IC50 [ μ M] (SD)) is reported as greater than 1000 µM.
`O=C(c1ccc(Br)cc1)c1[nH]nnc1CO` [Compound 123, (4-Bromophenyl)(4-(hydroxymethyl)-1H-1,2,3-triazol-5-yl)methanone] gave an IC50 (read-out: IC50 [ μ M] (SD)) greater than 1000 µM.
For `N#Cc1[nH]nnc1-c1ccccc1` [Compound 62, 4-Phenyl-1H-1,2,3-triazole-5-carbonitrile], the IC50 (read-out: IC50 [ μ M] (SD)) was 630 µM and the “LE [kcal/mol/HA]” value was 0.34 kcal/mol/HA.
In the case of `Cc1cccc2sc3nncn3c12` [Compound 167, tryclazole, reference compound], the IC50 (IC50 [ μ M] (SD)) is reported as greater than 1000 µM.
`c1ccc(Nc2cnn[nH]2)cc1` [Compound 79] showed an IC50 (read-out: IC50 [ μ M] (SD)) greater than 100 µM.
With `Clc1cccc(Cl)c1-c1c[nH]nn1` [Compound 51, 4–(2,6-Dichlorophenyl)-1,2,3-triazole] the IC50 (read-out: IC50 [ μ M] (SD)) was 280 µM and the “LE [kcal/mol/HA]” value was 0.37 kcal/mol/HA.
With `CCCCc1cccc(-c2c[nH]nn2)c1` [Compound 24, 4–(3-Butylphenyl)-1,2,3-triazole] the IC50 (read-out: IC50 [ μ M] (SD)) was 34 µM and the “LE [kcal/mol/HA]” value was 0.41 kcal/mol/HA.
`Fc1ccc(-c2nc[nH]n2)cc1` [Compound 134, 3–(4-Fluorophenyl)-1H-1,2,4-triazole] showed an IC50 (read-out: IC50 [ μ M] (SD)) greater than 1000 µM.
For `Brc1cccc(-c2nc[nH]n2)c1` [Compound 135, 3–(3-Bromophenyl)-1H-1,2,4-triazole], the IC50 (read-out: IC50 [ μ M] (SD)) was 16 µM and the “LE [kcal/mol/HA]” value was 0.55 kcal/mol/HA.
`O=C(Nc1ccccc1)c1cn[nH]n1` [Compound 86, N-Phenyl-1H-1,2,3-triazole-4-carboxamide] gave an IC50 (read-out: IC50 [ μ M] (SD)) greater than 1000 µM.
With `COc1cccc(C(=O)c2cnn[nH]2)c1` [Compound 104, (3-Methoxyphenyl)(1H-1,2,3-triazol-5-yl)methanone] the IC50 (read-out: IC50 [ μ M] (SD)) was 990 µM and the “LE [kcal/mol/HA]” value was 0.28 kcal/mol/HA.
In the case of `Cc1c(Br)ccc(N)c1-c1nc[nH]n1` [Compound 155, 4-Bromo-3-methyl-2-(1H-1,2,4-triazol-3-yl)aniline], the IC50 (read-out: IC50 [ μ M] (SD)) is reported as 63 µM and the “LE [kcal/mol/HA]” value is reported as 0.41 kcal/mol/HA.
`O=S(=O)(c1ccccc1)c1c[nH]nn1` [Compound 84, 4-(Phenylsulfonyl)-1H-1,2,3-triazole] gave an IC50 (read-out: IC50 [ μ M] (SD)) greater than 1000 µM.
`O=C(c1ccc(Br)cc1)c1[nH]nnc1CBr` [Compound 124, (4-(Bromomethyl)-1H-1,2,3-triazol-5-yl)(4-bromophenyl)methanone] gave an IC50 (read-out: IC50 [ μ M] (SD)) greater than 1000 µM.
`COc1ccccc1C(=O)c1cnn[nH]1` [Compound 103, (2-Methoxyphenyl)(1H-1,2,3-triazol-5-yl)methanone] gave an IC50 (read-out: IC50 [ μ M] (SD)) greater than 1000 µM.
`c1ccc2c(c1)Cc1n[nH]nc1-2` [Compound 89, 3,8-Dihydroindeno[1,2-d][1,2,3]triazole] gave an IC50 (read-out: IC50 [ μ M] (SD)) greater than 1000 µM.
For `O=C(Nc1c(Cl)cccc1-c1nc[nH]n1)c1ccccc1` [Compound 154, N-(2-Chloro-6-(1H-1,2,4-triazol-3-yl)phenyl)benzamide], the IC50 (read-out: IC50 [ μ M] (SD)) was greater than 1000 µM.
For `Clc1cncc(-c2nc[nH]n2)n1` [Compound 162, 2-Chloro-6-(1H-1,2,4-triazol-3-yl)pyrazine], the IC50 (read-out: IC50 [ μ M] (SD)) was 250 µM and the “LE [kcal/mol/HA]” value was 0.41 kcal/mol/HA.
With `COc1cccc(OC)c1-c1c[nH]nn1` [Compound 45, 4–(2,6-Dimethoxyphenyl)-1,2,3-triazole] the IC50 (read-out: IC50 [ μ M] (SD)) was greater than 1000 µM.
In the case of `O=C(c1cccc(Cl)c1)c1cnn[nH]1` [Compound 101, (3-Chlorophenyl)(1H-1,2,3-triazol-5-yl)methanone], the IC50 (read-out: IC50 [ μ M] (SD)) is reported as 450 µM and the “LE [kcal/mol/HA]” value is reported as 0.33 kcal/mol/HA.
For `O=C(Nc1ccccc1-c1nc[nH]n1)c1ccccc1` [Compound 152, N-(2-(1H-1,2,4-triazol-3-yl)phenyl)benzamide], the IC50 (read-out: IC50 [ μ M] (SD)) was greater than 100 µM.
